# Measurements from patent publication US20140249105A1, “NOVEL CERAMIDE ANALOGUES, PROCESSES FOR PREPARING SAME AND USES THEREOF” (Diverchim, priority 2011, published 2014).
# Where “and” joins values, the source holds several entries; their conditions need not be identical. Identical values can stand only once. * marks the point of attachment. MeOSuc = COC(=O)CCC(=O)*; CH2Cl = ClC*
# Assays:
# [1] = tested on: Human dermal fibroblasts aged according to the Hayflick model (P17NHDF); experiment: Proliferation of aged human dermal fibroblasts, [3H]-thymidine incorporation; type: cell-based; settings: 72 hours
# Description: Thus, stimulation of the proliferation of the aged fibroblasts makes possible a partial reversal of the deleterious effects of ageing. • Biological model: Human dermal fibroblasts aged according to the Hayflick model (fibroblasts obtained by successive subculture) (P17NHDF) • Culture conditions: 37° C., 5% CO2 • Culture medium: DMEM/fetal calf serum (FCS) 10% • Conditions: • Control (n=6) • Control normal fibroblasts, not aged (P7 NHDF) (n=2) • Reference: EGF (Epidermal Growth Factor) at 10 ng/mL (n=2) • compounds tested (n=2) • Incubation: 72 hours • Assay: The effects on proliferation were evaluated by measuring the incorporation of [^3H]-thymidine in fibroblasts aged according to the Hayflick model. The Hayflick model consists of applying successive subcultures in order to induce an “aged” phenotype. The results are expressed in percentage stimulation of the incorporation of [^3H]-thymidine.
# B16 melanocytes [2] = experiment: Screening of anti-melanogenesis activity: melanin assay in B16 melanocytes stimulated with NDP-MSH; type: cell-based; settings: 72 h
# Description: This was carried out for compounds in solution in DMSO. The synthesis of melanin was measured in a model of B16 melanocytes stimulated with a stable derivative of α-MSH (natural hormone that stimulates melanogenesis: Melanocyte Stimulating Hormone): NDP-MSH ([Nle^4, DPhe7]-α-MSH).
# (§1) Melanocytes were seeded on a 96-well plate and cultured for 24 h (37° C., 5% CO2, DMEM 1 g/L glucose without phenol red supplemented with glucose 3 g/L, L-glutamine 2 mM, penicillin 50 U/mL, streptomycin 50 μg/mL, fetal calf serum (FCS) 10%). […] Each experimental condition was carried out with n=3, apart from the controls carried out with n=6. The cells were then incubated for 72 h. Wells without cells received in parallel the same quantities of medium, supplemented or not with NDP-MSH and with or without the test compounds or the reference in order to quantify the background noise associated with the presence of the compounds.
# At the end of 72 hours of incubation, the total melanin (intra- and extracellular) was quantified by measuring the absorbance of each sample at 405 nm (direct reading of the culture plates) against a standard range of melanin (melanin concentrations tested from 0.78 to 100 μg/mL). The background noise, measured in the wells without cells, was subtracted from the values measured so that only the effect connected with the production of melanin is taken into account, without including any interference connected with the presence of the compounds. The results were expressed in percentage of melanin relative to the control as well as in percentage inhibition.
# B16 melanocytes [3] = experiment: Viability of the cells, test of reduction of MTT; type: cell-based; settings: 72 h
# Description: as §1
# At the end of the treatment, the cells were incubated in the presence of MTT (3-(4,5-dimethylthiazol-2-yl)-2,5-diphenyl tetrazolium bromide), the conversion of which to blue crystals of formazan is proportional to the activity of succinate dehydrogenase (mitochondrial enzyme). After disruption of the cells, the formazan was dissolved in DMSO medium and the optical density (OD), representative of the number of live cells and of their metabolic reactivity, was measured with a microplate reader at 540 nm (VERSAmax, Molecular Devices).
# [4] = tested on: Normal human dermal fibroblasts (NHDF); experiment: Proliferation and/or migration of fibroblasts, artificial wound coverage; type: cell-based; settings: percentage coverage at 24 h
# Description: An increase in migration and proliferation of the cells allows an improvement in healing. • Biological model: Normal human dermal fibroblasts (NHDF) • Culture conditions: 37° C., 5% CO2 • Culture medium: DMEM • Conditions: • Control (NHDF in DMEM test medium 0% FCS) (n=6) • Reference: FCS (Fetal Calf Serum) at 10% (n=2) • compounds tested (n=2) • Incubation: 72 hours • Assay: Normal human fibroblasts were seeded on 96-well plates suitable for the migration studies. In these plates, the substrates were pretreated with a solution of collagen and a mask was placed at the centre of each well, preventing adhesion of the cells in this zone and thus forming an artificial wound. After labelling the cells with calcein, the masks were removed and then the cells were treated with the compounds or the reference. The migration of the cells was monitored microscopically for 72 hours, taking photographs at 0 h, 24 h, 48 h and 72 h. The results are expressed in percentage coverage and compared with the untreated control.
# [5] = tested on: Normal human epidermal keratinocytes (NHEK); experiment: Proliferation and/or migration of keratinocytes, artificial wound coverage; type: cell-based; settings: percentage coverage at 48 h
# Description: The phases of migration and proliferation of cells are major phases of healing that occur after the inflammation phase and are necessary for recolonization of the wound. An increase in the migration and proliferation of cells allows an improvement in healing. • Biological model: Normal human epidermal keratinocytes (NHEK) • Culture conditions: 37° C., 5% CO2 • Culture medium: Keratinocyte-SFM-PE-EGF (keratinocyte culture medium—serum free medium (SFM) without pituitary extract (PE) and without Epidermal Growth Factor (EGF) • Conditions: • Control (n=6) • Reference: EGF (Epidermal Growth Factor) at 10 ng/ml (n=2) • compounds tested (n=2) • Incubation: 72 hours • Assay: Normal human keratinocytes were seeded on 96-well plates suitable for the migration studies. In these plates, the substrates were pretreated with a solution of collagen and a mask was placed at the centre of each well, preventing adhesion of the cells in this zone and thus forming an artificial wound. After labelling the cells with calcein, the masks were removed and then the cells were treated with the compounds or the reference. The migration of the cells was monitored microscopically for 72 hours, taking photographs at 0 h, 24 h, 48 h and 72 h. The results are expressed in percentage coverage and compared with the untreated control.
# [6] = molecular target: T1, tyrosinase (DOPA oxidase) (Homo sapiens, UniProt P14679); experiment: Screening of anti-tyrosinase activity: DOPA oxidase reaction on separated epidermis, count of DOPA positive melanocytes per mm2; type: cell-based; settings: for Variation/control: DOPA positive melanocyte count per mm2 vs DOPA control, product at 30 μg/mL in DMSO; for effectiveness for limiting tyrosinase activity compared with reference compounds: vs ref 1
# T1 construct: from tissue; host or cells: separated human epidermis from a frozen abdominoplasty (melanocytes in situ)
# T1 sequence (P14679 19-529): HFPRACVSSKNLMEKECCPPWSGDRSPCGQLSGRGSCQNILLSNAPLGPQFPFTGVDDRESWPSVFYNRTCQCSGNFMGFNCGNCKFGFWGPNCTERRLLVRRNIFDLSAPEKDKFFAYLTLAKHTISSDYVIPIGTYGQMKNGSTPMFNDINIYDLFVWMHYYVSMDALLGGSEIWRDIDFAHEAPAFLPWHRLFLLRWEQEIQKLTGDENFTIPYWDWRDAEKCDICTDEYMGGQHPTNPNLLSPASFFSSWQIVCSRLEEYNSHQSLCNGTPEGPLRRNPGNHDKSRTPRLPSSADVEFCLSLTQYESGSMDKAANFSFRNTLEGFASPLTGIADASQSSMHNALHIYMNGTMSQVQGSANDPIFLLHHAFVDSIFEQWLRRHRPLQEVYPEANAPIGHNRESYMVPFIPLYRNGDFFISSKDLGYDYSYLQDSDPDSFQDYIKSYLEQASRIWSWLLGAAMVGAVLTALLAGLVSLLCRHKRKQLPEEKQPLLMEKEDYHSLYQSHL
# Description: The products are tested in solution at 30 μg/mL in DMSO. Epidermis samples originating from a frozen abdominoplasty (person) were separated by incubation in 2N NaBr for 1.0 h at 37° C. They were then fixed in a buffered formolized fixing agent, rinsed and put in contact with the volume/volume mixture: solutions of L-DOPA/test formulation. After incubation, they were rinsed and mounted between slide and cover slip with mounting liquid of the Aquatex type. Observation was by optical microscopy with ×10 objective. Images were obtained with a tri CCD Sony DXC […] camera and stored using the Leica IM1000 data archiving software. For each batch, several microscope fields were analysed using the LEICA QWin image analysis software. For each field, the DOPA positive melanocytes were counted and the area of the zone was measured to determine the melanocyte count per mm^2.
# human leukocyte elastase = molecular target: T2, human leukocyte elastase (Homo sapiens, UniProt P08246); experiment: Inhibition of leukocyte elastase (EnzChek Elastase assay kit); type: biochemical; settings: incubation 1 hour
# T2 sequence (P08246 30-267): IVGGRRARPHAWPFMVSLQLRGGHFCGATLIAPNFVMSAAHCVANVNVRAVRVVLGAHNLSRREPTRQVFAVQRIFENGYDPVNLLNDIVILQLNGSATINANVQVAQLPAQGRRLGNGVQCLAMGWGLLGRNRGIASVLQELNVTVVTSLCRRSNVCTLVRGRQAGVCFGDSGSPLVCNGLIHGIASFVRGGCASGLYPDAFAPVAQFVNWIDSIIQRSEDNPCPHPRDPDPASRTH
# From the text: The elastases are a sub-family of serine proteases responsible for the degradation of elastin. The numerous natural substrates of this enzyme include, in addition to elastin, the proteoglycans of cartilage, fibronectin and the type I, II, III and IV collagens. At the cutaneous level, inhibition of elastase can combat the effects of ageing, whether or not photo-induced, and limit the appearance of wrinkles and stretch marks. • Biological model: human leukocyte elastase • Conditions: • Control (n=6) • Reference: AAPV (N-methoxysuccinyl-Ala-Ala-Pro-Val-chloromethyl ketone) 100 μM (n=6) • compounds tested (n=2) • Incubation: 1 hour • Assay: The activity of human leukocyte elastase was evaluated using the EnzChek® Elastase assay kit. The measurement of activity is based on the use of a fluorescent substrate (DQTM Elastin) whose fluorescence is “quenched” through the presence of “quencher” groups at the level of the lytic sites. After action of the enzyme, the “quencher” groups are released and the fluorescence emitted is proportional to the activity of the enzyme. The results are expressed in percentage inhibition of the enzyme activity.
molecule,measurement,setting,value
O=C(/C=C/CCCCCCCCCCCO)N[C@H]1C[C@H]1NC(=O)/C=C/CCCCCCCCCCCO [c7],Stimulation (%),[1]; 10 μM,63%
O=C(/C=C/CCCCCOC1CCCCO1)N[C@H]1CCC[C@H]1NC(=O)/C=C/CCCCCOC1CCCCO1 (stereo partly shown) [c27],inhibition at 30 µM,"B16 melanocytes [2]; Melanocyte, 30 μM, read-out: Normalized data inhibition (%)",12%
same,inhibition at 100 µM,"B16 melanocytes [2]; Melanocyte, 100 μM, read-out: Normalized data inhibition (%)",110%
same,Viability (MTT) % stimulated control,B16 melanocytes [3]; 30 μM,89 % stimulated control
same,Viability (MTT) % stimulated control,B16 melanocytes [3]; 100 μM,71 % stimulated control
same,% control 24 h,[4]; 10 μM,131 % control
O=C(N[C@H]1C[C@H]1NC(=O)/C(F)=C/CCCCCCCCCCCO)/C(F)=C/CCCCCCCCCCCO [c40],% control 48 h,[5]; 30 μM,144 % control
same,Normalized data inhibition (%),B16 melanocytes [2]; 10 μM,−1%
same,Viability (MTT) % stimulated control,B16 melanocytes [3]; 10 μM,89 % stimulated control
same,Viability (MTT) % stimulated control,B16 melanocytes [3]; 30 μM,85 % stimulated control and 94 % stimulated control
same,Viability (MTT) % stimulated control,B16 melanocytes [3]; 100 μM,86 % stimulated control and 94 % stimulated control
same,Variation/control,[6],−61
same,effectiveness for limiting tyrosinase activity compared with reference compounds,[6],more effective than the reference compounds
O=C(NC1CC1NC(=O)C(F)=CCCCCCCCCCCCCCCO)C(F)=CCCCCCCCCCCCCCCO (stereo not shown) [c42],% control 48 h,[5]; 3 μM,141 % control
same,% control 24 h,[4]; 3 μM,130 % control
same,Variation/control,[6],−55
same,effectiveness for limiting tyrosinase activity compared with reference compounds,[6],more effective than the reference compounds
same,Stimulation (%),[1]; 3 μM,48%
CCCCCCCCCCC/C=C(/F)C(=O)N[C@@H]1CC[C@H](NC(=O)/C(F)=C\CCCCCCCCCCC)C1 [c85],% control 48 h,[5]; 10 μM,176 % control
same,Stimulation (%),[1]; 10 μM,22%
CCCCCC=CCC=CCCCCCCCC(=O)NC1CCCC1NC(=O)CCCCCCCC=CCC=CCCCCC (stereo not shown) [c128],Normalized data inhibition (%),B16 melanocytes [2]; 30 μM,9%
same,Normalized data inhibition (%),B16 melanocytes [2]; 100 μM,93%
same,Inhibition (%),human leukocyte elastase; 30 μM,75%
CCCCCCCCCCCCCC(=O)NC1CCC(NC(=O)CCCCCCCCCCCCC)C1 (stereo not shown) [c132],% control 48 h,[5]; 10 μM,138 % control
same,% control 24 h,[4]; 10 μM,131 % control
"EGF: Epidermal Growth Factor, reference",% control 48 h,[5]; 10 ng/mL,161 % control
same,Stimulation (%),[1]; 10 ng/ml,89%
N-methoxysuccinyl-Ala-Ala-Pro-Val-chloromethyl ketone (MeOSuc-AAPV-CH2Cl) [reference compound],Inhibition (%),human leukocyte elastase; 100 μM,95%
